According to patent publication US20250388565A1, “ESTROGEN RECEPTOR ALPHA DEGRADERS AND METHODS OF USE THEREOF” (Relay Therapeutics, Inc., priority 2022, published 2025):

The compounds below were run against T1, ERα protein (HiBiT-tagged) in ESR1_HiBiT KI MCF7 cells (Homo sapiens, UniProt P03372) (assay: Nano Glo HiBiT Lytic Degradation Assay). Conditions: 6 hours with compound, 14-point dose response 1:3, bell-shape curve fit, half-maximal effect of first Hill model, read-out: MCF7 ESR1 HiBiT - (DC50).
T1 sequence (P03372 1-595): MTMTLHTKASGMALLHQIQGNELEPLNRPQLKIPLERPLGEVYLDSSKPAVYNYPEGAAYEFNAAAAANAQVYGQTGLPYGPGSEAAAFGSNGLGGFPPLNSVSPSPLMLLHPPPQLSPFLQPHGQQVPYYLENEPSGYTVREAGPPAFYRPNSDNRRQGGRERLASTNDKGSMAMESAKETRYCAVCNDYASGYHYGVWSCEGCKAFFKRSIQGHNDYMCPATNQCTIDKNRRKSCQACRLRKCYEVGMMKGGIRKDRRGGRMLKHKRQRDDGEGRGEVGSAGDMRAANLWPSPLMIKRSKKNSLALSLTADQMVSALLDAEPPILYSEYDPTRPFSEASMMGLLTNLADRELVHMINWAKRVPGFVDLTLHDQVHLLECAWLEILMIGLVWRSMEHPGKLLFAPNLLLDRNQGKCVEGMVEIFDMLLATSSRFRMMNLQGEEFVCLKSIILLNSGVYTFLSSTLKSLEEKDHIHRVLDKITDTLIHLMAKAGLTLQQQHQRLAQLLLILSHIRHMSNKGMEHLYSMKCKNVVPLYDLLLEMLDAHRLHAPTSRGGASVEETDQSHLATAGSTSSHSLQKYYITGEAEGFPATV
Type: cell-based
How it was run: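 Lytic Nano-Glo HiBiT luminescence quantified ERα remaining after a 6 h, 37° C compound exposure of MCF7 cells carrying endogenous HiBiT-tagged ESR1. Dosing used 14 threefold dilutions from a 10 mM DMSO stock (0.1% DMSO final), run in duplicate. Signals were corrected for cell-free background and expressed relative to DMSO, and DC50 came from a bell-shaped curve fit (first Hill model half-maximum).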
A DC50 of 0.82 nM was found for `O=C1CC[C@H](N2Cc3cc(N4CCN(CC5CCN(c6ccc([C@@H]7c8ccc(O)cc8CC[C@@H]7C7CCCCC7)nc6)CC5)CC4)ccc3C2=O)C(=O)N1` [Compound I-149, (S)-3-(5-(4-((1-(6-((1S,2R)-2-cyclohexyl-6-hydroxy-1,2,3,4-tetrahydronaphthalen-1-yl)pyridin-3-yl)piperidin-4-yl)methyl)piperazin-1-yl)-1-oxoisoindolin-2-yl)piperidine-2,6-dione] in this work.
A DC50 of 11 nM was found for `COc1cc(N2CCC(CN3CCN(c4ccc5c(c4)CN([C@H]4CCC(=O)NC4=O)C5=O)CC3)CC2)ccc1[C@H]1c2ccc(O)cc2CC[C@H]1C1CCCCC1` [Compound I-151, (S)-3-(5-(4-((1-(4-((1R,2S)-2-cyclohexyl-6-hydroxy-1,2,3,4-tetrahydronaphthalen-1-yl)-3-methoxyphenyl)piperidin-4-yl)methyl)piperazin-1-yl)-1-oxoisoindolin-2-yl)piperidine-2,6-dione] in this work.
A DC50 of 0.83 nM was found for `O=C1CC[C@H](N2Cc3cc(N4CC5(CCN(CC6CCN(c7ccc([C@@H]8c9ccc(O)cc9CC[C@@H]8c8ccccc8)cc7)CC6)CC5)C4)ccc3C2=O)C(=O)N1` (single isomer, unassigned) [II-95] in this work.
A DC50 of 3300 nM was found for `C[C@@H]1CCc2cc(O)ccc2[C@@H]1c1ccc(N2CCC(CN3CCN(c4ccc5c(c4)CN([C@H]4CCC(=O)NC4=O)C5=O)CC3)CC2)cc1` [Compound I-125, (S)-3-(5-(4-((1-(4-((1S,2R)-6-hydroxy-2-methyl-1,2,3,4-tetrahydronaphthalen-1-yl)phenyl)piperidin-4-yl)methyl)piperazin-1-yl)-1-oxoisoindolin-2-yl)piperidine-2,6-dione] in this work.
A DC50 of 0.27 nM was found for `Cc1ccc([C@H]2OCc3cc(O)ccc3[C@H]2c2ccc(N3CCC(CN4CCN(c5ccc6c(c5)CN([C@H]5CCC(=O)NC5=O)C6=O)CC4)CC3)cc2)cc1F` (single isomer, unassigned) [Compound I-355] in this work.
A DC50 of 0.45 nM was found for `O=C1CC[C@H](N2Cc3cc(N4CCN(CC5CCN(c6ccc([C@@H]7c8ccc(O)cc8CC[C@@H]7C7CCOCC7)cc6)CC5)CC4)ccc3C2=O)C(=O)N1` [Compound I-32, (3S)-3-[5-[4-[[1-[4-[(1R,2R)-6-hydroxy-2-tetrahydropyran-4-yl-tetralin-1-yl]phenyl]-4-piperidyl]methyl]piperazin-1-yl]-1-oxo-isoindolin-2-yl]piperidine-2,6-dione] in this work.
A DC50 of 0.84 nM was found for `O=C1CC[C@H](N2Cc3cc(N4CCN(CC5CCN(c6ccc([C@@H]7c8ccc(O)cc8CC[C@@H]7c7ccccc7)cc6F)CC5)CC4)ccc3C2=O)C(=O)N1` [II-82] in this work.
A DC50 of 1.17 nM was found for `O=C1CC[C@H](N2Cc3cc(N4CCN(CC5CCN(c6ccc([C@H]7c8ccc(O)cc8CC[C@H]7c7ccccc7F)cc6)CC5)CC4)ccc3C2=O)C(=O)N1` (single isomer, unassigned) [II-25] in this work.
A DC50 of 64 nM was found for `O=C1CC[C@H](N2Cc3cc(N4CCN(CC5CCN(c6ccc([C@H]7c8ccc(O)cc8CO[C@H]7C7CCCCC7)cc6)CC5)CC4)ccc3C2=O)C(=O)N1` [Compound I-250, (S)-3-(5-(4-((1-(4-((3S,4S)-3-cyclohexyl-7-hydroxyisochroman-4-yl)phenyl)piperidin-4-yl)methyl)piperazin-1-yl)-1-oxoisoindolin-2-yl)piperidine-2,6-dione] in this work.
A DC50 of 0.52 nM was found for `Cc1cc(N2CCC3(CCN(CC4CCN(c5ccc([C@@H]6c7ccc(O)cc7CC[C@@H]6c6ccccc6)cc5)CC4)C3)CC2)ccc1N1CCC(=O)NC1=O` [Compound I-293] in this work.
A DC50 of 1 nM was found for `O=C1CC[C@H](N2Cc3cc(N4CCN(CC5CCN(c6ccc(C7c8ccc(O)cc8CCC7C7CCCCC7)cn6)CC5)CC4)ccc3C2=O)C(=O)N1` (stereo in doubt) [Compound I-155, (S)-3-(5-(4-((1-(5-((1R,2S)-2-cyclohexyl-6-hydroxy-1,2,3,4-tetrahydronaphthalen-1-yl)pyridin-2-yl)piperidin-4-yl)methyl)piperazin-1-yl)-1-oxoisoindolin-2-yl)piperidine-2,6-dione] in this work.
A DC50 of at least 10000 nM was found for `N#Cc1ccc2c(c1)CC[C@H](c1ccccc1)[C@@H]2c1ccc(N2CCC(CN3CCN(c4ccc5c(c4)CN([C@H]4CCC(=O)NC4=O)C5=O)CC3)CC2)cc1` [Compound I-49, (5R,6S)-5-(4-(4-((4-(2-((S)-2,6-dioxopiperidin-3-yl)-1-oxoisoindolin-5-yl)piperazin-1-yl)methyl)piperidin-1-yl)phenyl)-6-phenyl-5,6,7,8-tetrahydronaphthalene-2-carbonitrile] in this work.
A DC50 of 3 nM was found for `O=C1CC[C@H](N2Cc3cc(N4CCN(CC5CCN(c6ccc([C@@H]7c8ccc(O)cc8CC[C@@H]7C7CCC8(CC7)CC8)cc6)CC5)CC4)ccc3C2=O)C(=O)N1` [Compound I-146] in this work.
A DC50 of 5 nM was found for `C[C@]1(c2ccccc2)OCc2cc(O)ccc2[C@@H]1c1ccc(N2CCC(CN3CCN(c4ccc5c(c4)CN([C@H]4CCC(=O)NC4=O)C5=O)CC3)CC2)cc1` (single isomer, unassigned) [Compound I-345, (S)-3-(5-(4-((1-(4-((3*S,4*S)-7-hydroxy-3-methyl-3-phenylisochroman-4-yl)phenyl)piperidin-4-yl)methyl)piperazin-1-yl)-1-oxoisoindolin-2-yl)piperidine-2,6-dione] in this work.
A DC50 of 0.77 nM was found for `C[C@@H]1Cc2cc(O)ccc2[C@@H](c2ccc(N3CCC(CN4CCN(c5ccc6c(c5)CN([C@H]5CCC(=O)NC5=O)C6=O)CC4)CC3)cc2)[C@H]1c1ccccc1` [Compound I-175, (S)-3-(5-(4-((1-(4-((1R,2S,3R)-6-hydroxy-3-methyl-2-phenyl-1,2,3,4-tetrahydronaphthalen-1-yl)phenyl)piperidin-4-yl)methyl)piperazin-1-yl)-1-oxoisoindolin-2-yl)piperidine-2,6-dione] in this work.
A DC50 of 1 nM was found for `O=C1CCC(n2cc3cc(N4CCN(CC5CCN(c6ccc([C@@H]7c8ccc(O)cc8CC[C@@H]7c7ccccc7)cc6)CC5)CC4)ccc3n2)C(=O)N1` (stereo partly shown) [Compound I-301] in this work.
A DC50 of 22 nM was found for `O=C1CC[C@@H](c2ccc(N3CCC4(CCN(CC5CCN(c6ccc([C@@H]7c8ccc(O)cc8CO[C@@H]7c7ccccc7)cc6)CC5)C4)CC3)cc2)C(=O)N1` (single isomer, unassigned) [Compound I-390] in this work.
A DC50 of 370 nM was found for `O=C1CC[C@H](N2Cc3cc(N4CCN(CC5CCN(c6ccc([C@H]7c8ccc(O)cc8CC[C@H]7C78CC9CC(CC(C9)C7)C8)cc6)CC5)CC4)ccc3C2=O)C(=O)N1` [Compound I-241, (S)-3-(5-(4-((1-(4-((1S,2R)-2-((3S,5S,7S)-adamantan-1-yl)-6-hydroxy-1,2,3,4-tetrahydronaphthalen-1-yl)phenyl)piperidin-4-yl)methyl)piperazin-1-yl)-1-oxoisoindolin-2-yl)piperidine-2,6-dione] in this work.
A DC50 of at least 10000 nM was found for `O=C1CC[C@H](N2Cc3cc(N4CCN(CC5CCN(c6ccc([C@H]7c8ccc(O)cc8CC[C@H]7C7CCCCC7)cc6)CC5)CC4)ccc3C2=O)C(=O)N1` [Compound I-5, (3S)-3-[5-[4-[[1-[4-[(1S,2S)-2-cyclohexyl-6-hydroxy-tetralin-1-yl]phenyl]-4-piperidyl]methyl]piperazin-1-yl]-1-oxo-isoindolin-2-yl]piperidine-2,6-dione] in this work.
A DC50 of 2 nM was found for `C[C@H]1CN(c2ccc3c(c2)CN([C@H]2CCC(=O)NC2=O)C3=O)CCN1CC1CCN(c2ccc([C@@H]3c4ccc(O)cc4CC[C@@H]3c3ccccc3)cc2)CC1` (single isomer, unassigned) [II-1] in this work.
A DC50 of 0.006 nM was found for `O=C1CC[C@H](N2Cc3cc(N4CCN(CC5CC6CCC(C5)N6c5ccc([C@H]6c7ccc(O)cc7CC[C@H]6c6ccccc6)cc5)CC4)ccc3C2=O)C(=O)N1` (single isomer, unassigned) [II-56] in this work.
A DC50 of at least 10000 nM was found for `COc1cc(N2CCC(CN3CCN(c4ccc5c(c4)CN([C@H]4CCC(=O)NC4=O)C5=O)CC3)CC2)ccc1[C@H]1c2ccc(O)cc2CC[C@H]1c1ccccc1` [Compound I-143, (S)-3-(5-(4-((1-(4-((1R,2R)-6-hydroxy-2-phenyl-1,2,3,4-tetrahydronaphthalen-1-yl)-3-methoxyphenyl)piperidin-4-yl)methyl)piperazin-1-yl)-1-oxoisoindolin-2-yl)piperidine-2,6-dione] in this work.
A DC50 of 0.93 nM was found for `Cc1ccc([C@H]2CCc3cc(O)ccc3[C@H]2c2ccc(N3CCC(CN4CCN(c5ccc6c(c5)CN([C@H]5CCC(=O)NC5=O)C6=O)CC4)CC3)cc2)cc1` (single isomer, unassigned) [II-36] in this work.
A DC50 of 4 nM was found for `O=C1CC[C@H](N2Cc3cc(N4CCN(CC5CCN(c6ccc([C@@H]7c8ccc(O)cc8CO[C@]78CCCc7ccccc78)cc6)CC5)CC4)ccc3C2=O)C(=O)N1` (single isomer, unassigned) [Compound I-272] in this work.
A DC50 of 0.3 nM was found for `O=C1CC[C@H](N2Cc3cc(N4CCN(CC5CCN(c6ccc([C@@H]7c8ccc(O)cc8C(F)(F)C[C@@H]7c7ccccc7)cn6)CC5)CC4)ccc3C2=O)C(=O)N1` [Compound I-202, (3S)-3-[5-[4-[[1-[5-[(1S,2S)-4,4-difluoro-6-hydroxy-2-phenyl-tetralin-1-yl]-2-pyridyl]-4-piperidyl]methyl]piperazin-1-yl]-1-oxo-isoindolin-2-yl]piperidine-2,6-dione] in this work.
